Twelve molecules from US11780833B2, “Emetine derivatives, prodrugs containing same, and methods of treating conditions using same” (HOWARD UNIVERSITY, priority 2011, dated 2023) can be followed below.

The structures appear in SMILES notation. Where two headings read alike, the source gives them in different places.

The subject of one data set is LNCaP cells. Kind of data set: Cytotoxicity in LNCaP prostate cancer cell line. The format is cell-based. The following applies: Homo sapiens. The procedure: (§1) Studies were carried out on three prostate cancer cell lines: LNCaP, PC3, and DU145. […] There was not a significant difference in cytotoxicity of emetine between days 3 and 7. […] This increase is most likely due to the release of emetine from the dithiocarbamate salt over the time period. Further drug release studies at pH 5 confirmed about 45% release of emetine from the dithiocarbamate salt after 3-day incubation at this acidic pH maintained at 37° C., whereas release of emetine from the dithiocarbamate salt was not observed at physiological pH (e.g., about 7.4).
(§2) Various compounds prepared according to Examples 1-5 were studied in LNCaP, PC3, and DU145 cells.

For data set [1], the system named is DU145 cells. Kind of data set: cells. It counts as cell-based. Conditions: Homo sapiens. The procedure:
as §1, §2
(§3) Various compounds prepared according to Example 6 were studied in DU145 and PC3 cells. The IC50 was determined at 3, 5, and 7 days.

In data set [2] the test system is PC3 cells. Kind of data set: cells. It counts as cell-based. Conditions: Homo sapiens. The procedure: as §1, §2, §3
Data set [3] is described as follows: pH-responsiveness by HPLC: emetine released in aqueous phosphate buffer. The format is physicochemical. Conditions: 37° C. The procedure:
Relative rates of hydrolysis of the compounds listed in Table 5 below over a 48 hour period were evaluated using the percent emetine released from the acid catalyzed hydrolysis of compounds 1 to 6.
The compounds were incubated in aqueous phosphate buffer at pH 5.5, 6.5 and 7.4 at 37° C. over a 48 hour period. High performance liquid chromatography (HPLC) was employed to analyze the samples and quantify how much emetine was released. The compounds whose hydrolysis to emetine is shown in table 5 are all 100% stable at physiological pH 7.4 up to a 5 day exposure.

Data set [4] is described as follows: In vivo toxicity study in mice. From the text:
Each experiment or dosage involved three mice, and drug solutions were made in 1% DMSO/PBS. Each experiment was done three times.
The compounds were subjected to in vivo toxicity studies as follows. […] This observation was the same on the third and fourth day.

Data set [5] relates to DU145 cells. Kind of data set: Cytotoxicity in 100% confluent DU145 cells (Example 9). Conditions: Homo sapiens, DU-145, 120 h; DU145, 100% confluent cells, medium pH 6.7, day 5. It counts as cell-based. The procedure: (§4) The cytotoxicity of emetine and Compound 2 (as produced above in Example 1 and referred to in the figures as “ESA44”) was evaluated in DU145 and PC3 cells using 100% confluent cells. Cells were plated at 40,000 cells per well and allowed to grow for 4 days until the pH of the medium was 6.7. Compound 2 was added in RPMI, pH 7.0. The effect of the pH on the hydrolysis of Compound 2 to release emetine was evaluated. FIGS. 1 and 2 are graphs showing the viability of DU145 and PC3 cells as percent of vehicle on day 5 versus concentration of emetine and Compound 2.

The subject of data set [6] is PC3 cells. Kind of data set: Cytotoxicity in 100% confluent PC3 cells (Example 9). The format is cell-based. Conditions: Homo sapiens, PC-3, 120 h; PC3, 100% confluent cells, medium pH 6.7, day 5. The procedure:
as §4

Where [7] appears, read: 168 h, read-out: IC50 after 7 days.
[8] abbreviates: DU-145, 168 h, read-out: IC50 after 7 days.
[9] abbreviates: PC-3, 168 h, read-out: IC50 after 7 days.

As for `CCC1CN2CCc3cc(OC)c(OC)cc3C2CC1CC1c2cc(OC)c(OC)cc2CCN1C(=S)SCCC(N)=O` (stereo not drawn) [Compound 4b], the results for the IC50 in the data set with LNCaP cells (setting [7]), with DU145 cells [1] (setting [8]) and with PC3 cells [2] (setting [9]) were > 10 µM, > 10 µM and 6.56 ± 1.11 µM, respectively.
For `CCOC(=O)c1ccc(NC(=O)CSC(=S)N2CCc3cc(OC)c(OC)cc3C2CC2CC3c4cc(OC)c(OC)cc4CCN3CC2CC)cc1` (stereo not drawn) [Compound 4c], the IC50 (commonly the concentration that gives 50% inhibition) in the data set with LNCaP cells (setting [7]) came out at 1.66 ± 0.564 µM; in the data set on DU145 cells [1] (setting [8]), 2.47 ± 0.263 µM; in the data set on PC3 cells [2] (setting [9]) it was 2.71 ± 0.192 µM.
Turning to `CCC1CN2CCc3cc(OC)c(OC)cc3C2CC1CC1c2cc(OC)c(OC)cc2CCN1C(=S)SCc1ccccc1` (stereo not drawn) [Compound 4f], the IC50 was determined as 1.97 ± 0.088 µM with LNCaP cells (setting [7]), 1.98 ± 0.213 µM in the data set on DU145 cells [1] (setting [8]) and 1.56 ± 0.29 µM in the data set on PC3 cells [2] (setting [9]).
On the same counts, the results for `CCC1CN2CCc3cc(OC)c(OC)cc3C2CC1CC1c2cc(OC)c(OC)cc2CCN1C(=S)SCC(=O)Nc1ccc(Br)cc1` (stereo not drawn) [Compound 4g] are 1.7 ± 0.187 µM, 2.79 ± 0.151 µM and 2.77 ± 0.146 µM.
The corresponding values for `CCCCCCSC(=S)N1CCc2cc(OC)c(OC)cc2C1CC1CC2c3cc(OC)c(OC)cc3CCN2CC1CC` (stereo not drawn) [Compound 4h] are 1.61 ± 0.066 µM, 2.3 ± 0.067 µM and 3.03 ± 0.16 µM.
With `CCC1CN2CCc3cc(OC)c(OC)cc3C2CC1CC1c2cc(OC)c(OC)cc2CCN1C(=S)SCCCCC(=O)OC` (stereo not drawn) [Compound 4l], the figures for the IC50 with LNCaP cells (setting [7]), in the data set on DU145 cells [1] (setting [8]) and in the data set with PC3 cells [2] (setting [9]) were 2.31 ± 0.174 µM, 2.25 ± 0.084 µM and 4.86 ± 0.153 µM, respectively.
With `CCC1CN2CCc3cc(OC)c(OC)cc3C2CC1CC1c2cc(OC)c(OC)cc2CCN1C(=O)/C=C(/C)C(=O)O` (stereo not drawn) [Compound 5], the “% Emetine at pH 5.5” value in data set [3] (pH 5.5, 0 hr) turned out to be 0.0%; in data set [3] (pH 5.5, 24 hrs), 61.5%; in data set [3] (pH 5.5, 48 hrs) it was 77.3%. Moreover, the “% Emetine at pH 6.5” value in data set [3] (pH 6.5, 0 hr) is 0.0%; in data set [3] (pH 6.5, 24 hrs), 24.9%. In addition, the “% Emetine at pH 7.4 to 8.0 over 72 hrs” value is given as 0.0% in data set [3] (pH 7.4 to 8.0, 0 hrs); 0.0% in data set [3] (pH 7.4 to 8.0, 24 hrs); 0.0% in data set [3] (pH 7.4 to 8.0, 48 hrs). Besides, the toxicity observation entry in data set [4] (11 and 33 MPK, day 5) is listed as “no noticeable toxicity effect”; in data set [4] (100 MPK or below (33 and 11 MPK), through third and fourth day) it was “no noticeable toxicity”; in data set [4] (100 MPK, day 5) it was “slight weight loss”.
Turning to `CCC1CN2CCc3cc(OC)c(OC)cc3C2CC1CC1c2cc(OC)c(OC)cc2CCN1S(=O)(=O)c1ccccc1` (stereo not drawn) [Compound 8e], the IC50 was 2.26 ± 0.798 µM with LNCaP cells (setting [7]), > 10 µM in the data set on DU145 cells [1] (setting [8]) and > 10 µM in the data set on PC3 cells [2] (setting [9]).
In the case of `CCC1CN2CCc3cc(OC)c(OC)cc3C2CC1CC1c2cc(OC)c(OC)cc2CCN1C(=S)NCc1ccccc1` (stereo not drawn) [Compound 11e], the IC50 in the data set with LNCaP cells (setting [7]) is 2.06 ± 0.438 µM; in the data set on DU145 cells [1] (setting [8]), 1.54 ± 0.254 µM; with PC3 cells [2] (setting [9]), 6.92 ± 0.0711 µM.
For `CCC1CN2CCc3cc(OC)c(OC)cc3C2CC1CC1c2cc(OC)c(OC)cc2CCN1C(=S)NCc1ccc(Cl)cc1` (stereo not drawn) [Compound 11g], the IC50 came to 1.59 ± 0.151 µM in the data set on LNCaP cells (setting [7]), 2.32 ± 0.091 µM in the data set with DU145 cells [1] (setting [8]) and 2.86 ± 0.0662 µM in the data set with PC3 cells [2] (setting [9]).
On the same counts, the results for `CCCCNC(=S)N1CCc2cc(OC)c(OC)cc2C1CC1CC2c3cc(OC)c(OC)cc3CCN2CC1CC` (stereo not drawn) [Compound 11k] are 1.31 ± 0.166 µM, 6.587 ± 0.0348 µM and 6.92 ± 0.17 µM.
In the case of `CC[C@H]1CN2CCc3cc(OC)c(OC)cc3[C@@H]2C[C@@H]1C[C@H]1NCCc2cc(OC)c(OC)cc21` [Emetine], the IC50 in the data set with DU145 cells [5] stood at 12.9 ± 2.39 µM; in the data set with PC3 cells [6], 3.85 ± 0.149 µM; in the data set with LNCaP cells (72 h, 3 day exposure, read-out: IC50), 0.0329 µM; in the data set on LNCaP cells (168 h, 7 days, read-out: IC50 after 7 days), 0.0278 ± 0.00384 µM; in the data set on LNCaP cells (168 h, seven day exposure, read-out: IC50) it was 0.0316 µM; with DU145 cells [1] (DU-145, 72 h, DU145, 3 day exposure, read-out: IC50), 0.0379 µM. For the same molecule, the IC50 was 0.0237 ± 0.00122 µM in the data set with DU145 cells [1] (DU-145, 168 h, DU145, 7 days, read-out: IC50 after 7 days); 0.0234 µM with DU145 cells [1] (DU-145, 168 h, DU145, seven day exposure, read-out: IC50); 0.0351 µM in the data set with PC3 cells [2] (PC-3, 72 h, PC3, 3 day exposure, read-out: IC50); 0.0268 ± 0.00228 µM in the data set with PC3 cells [2] (PC-3, 168 h, PC3, 7 days, read-out: IC50 after 7 days); 0.0294 µM in the data set on PC3 cells [2] (PC-3, 168 h, PC3, seven day exposure, read-out: IC50). For the same molecule, the toxicity observation result was “slight weight loss” in data set [4] (33 and 11 MPK); “killed all three mice” in data set [4] (single dose 100 MPK, within 48 hours).
